Reference: US20050170019A1, “Methods, compositions and devices for inducing stasis in cells” (Fred Hutchinson Cancer Research Center, priority 2003, published 2005)

What was measured:
mice [1] = assay: Visual observation of breathing of mice administered H2S; type: in vivo, mouse
Source text: The different parameters of stasis (reduction in oxygen consumption, decrease in carbon dioxide production or decrease in motility) can be assessed by a variety of assays and techniques. […] Indeed, this encompasses all three parameters in that it is indicative of decreased oxygen consumption, carbon dioxide production and motility. A normal mouse in room air at standard conditions will take approximately 200 breaths per minute. […] Thus, this represents at least about a 1-20-fold decrease in cellular respiration (i.e, oxygen consumption and carbon dioxide production).
During the experiment, the mouse was visually observed and its movements were recorded by web camera, and telemetry measurements were recorded as described above. […] At the end of an approximately six-hour period, heat was applied to the cabinet by setting the cabinet temperature to 25° C. […] After the cabinet was warmed, weak respiration was observed when the core body temperature of the mouse achieved 14° C. […] Normal movement and respiration were fully apparent when the core body temperature returned to 25° C.

humans = details: cited from earlier work
mice [2] = details: 80 ppm, cited from earlier work
mice [3] = details: mice tested before and after exposure
rats = details: cited from earlier work
mice [4] = assay: Respirometry (oxygen consumption, carbon dioxide production) of mice exposed to H2S; type: in vivo, mouse
Experimental: Measurements were over a period of 15 minutes, with the mice in a 0.5 L sealed environmental chamber with flow rates of 500 cc/min. Consumption of oxygen is obtained by subtracting the oxygen concentration when the mouse is present, from the control when the mouse is absent. Likewise, production of carbon dioxide is obtained by subtracting the carbon dioxide concentration when the mouse is present from the control when the mouse is absent. RQ stands for respiratory quotient, and is equal to the ratio of carbon dioxide produced to oxygen […]. […] The change in the respiratory quotient reflects the disparity oxygen consumption and carbon dioxide production by the mice in the presence or absence of the H2S.

mice [5] = assay: Telemetry of core body temperature, heart rate and movement of mice in regulated H2S atmosphere; type: in vivo, mouse
Source text: Implantation of telemetry devices.
Exposure of Mice to Regulated Atmosphere.
Regulation of Ambient Temperature. […] Mice were exposed to regulated atmosphere as described above.

[6] = mice, H2S 80 ppm versus without H2S
[7] = second mouse, 80 ppm, 3 hrs, incubator 18° C.

S [hydrogen sulfide, Hydrogen sulfide]
core body temperature at which weak respiration was observed on warming (mice [1]; 80 ppm, after cabinet 10.5° C., warming): 14 °C | decrease in cellular respiration (mice [1]; 80 ppm, core temperature 15° C., from breathing): 1-20 fold | breathing (mice [1]; 80 ppm, core temperature dropped to 15° C., normal approximately 200): 1-10 breaths per minute | core body temperature at which normal movement and respiration were fully apparent (mice [1]; after 80 ppm at 10.5° C., warming, room air): 25 °C | effect of exposure to extreme levels (humans; 500 ppm): sudden collapse and unconsciousness | effect of a single breath (knock down) (humans; atmosphere with 0.1% hydrogen sulfide): immediately collapse | OSHA limit for humans (humans; in vivo): 10 ppm | tolerability (mice [2]; exposures lasting up to ten weeks (CIIT 1983; Hays, 1972)): innocuous | adverse effect, gross and histopathological examination (mice [2]; mice, 6 hrs per day, 5 days per week, 90 days): no observed adverse effect | behavioral differences after gas exposure (mice [3]): no detectable behavioral differences | neurologic effect of perinatal exposure (rats; 20 or 50 ppm, 7 hours per day, gestation through post-natal day 21): longer dendritic branches with reduced aborization of cerebellar Purkinje cells | effects in exposed rat pups, perinatal study (rats; 80 ppm (Dorman et al., 2000)): no neuropathological effects or altered motor activity, passive avoidance, or acoustic startle response | learning of baited radial arm maze task (rats; moderate levels (Partlo et al., 2001)): interferes with the ability of rats to learn a baited radial arm maze task | discriminated avoidance responses (rats; moderate levels, immediately after end of exposure (Higuchi and Fukamachi)): inhibits discriminated avoidance responses | adverse effect, gross and histopathological examination (rats; rats, 80 ppm, 6 hrs per day, 5 days per week, 90 days): no observed adverse effect | RQ (respiratory quotient) (mice [4]; H2S (80 ppm) present): 0.58 | production of carbon dioxide (mice [4]; H2S (80 ppm) present): 750 ppm | Consumption of oxygen (mice [4]; H2S (80 ppm) present, control without mouse minus mouse present): 1300 ppm | drop in carbon dioxide production (mice [4]; [6]): 3-4 fold | drop in oxygen consumption (mice [4]; [6]): 2-3 fold | decrease in CO2 production (mice [4]; mouse, 80 ppm (FIG. 4A)): approximately 3 fold | time to reduced carbon dioxide production (new baseline) (mice [4]; mouse, 80 ppm (FIG. 4A)): approximately 5 minutes | core temperature reached (mice [5]; first mouse, 80 ppm, 90 min, incubator 18° C.): 28.6 °C | time to return to normal range of core temperature and activity in room air (mice [5]; first mouse, after 90 min at 80 ppm): ≤ 60 min | behavior of the animals after treatment (mice [5]; four mice maintained for 4 weeks after 6 hr 80 ppm at 15° C.): no apparent change in the behavior | behavior compared to untreated animals (mice [5]; mouse after 80 ppm at cabinet 10.5° C.): no apparent change in the behavior | core body temperature repeatedly reached (mice [5]; mouse, 80 ppm protocol): 13-15 °C | lowest core body temperature recorded (FIG. 7) (mice [5]; mouse, 80 ppm, ambient dropped to less than 10° C.): 10.7 °C | time to recover activity after removal from gassing chamber (mice [5]; non-telemetry mouse, 80 ppm, cabinet 10° C.): ≤ 90 min | core temperature reached (mice [5]; [7]): 18.6 °C | heart rate reached (from 600 bpm) (mice [5]; [7]): 250 bpm | recovery after rewarming in room air (mice [5]; seven mice, 80 ppm, 6 hrs): successfully recovered | lowest average core body temperature (mice [5]; seven mice, 80 ppm, 6 hrs, ambient temperature 13° C.): 15 °C | core temperature reached (estimation, electronics failed at 15.3° C.) (mice [5]; telemetry mouse, 80 ppm, cabinet 10° C.): approximately 12.5 °C | core body temperature reached (mice [5]; telemetry mouse, 80 ppm, cabinet 10.5° C., approximately six hours): 10.5 °C
